Patent US20250041624A1, “METHOD FOR ENHANCING ACTIVITY OF PHOTOSENSITIZER BY MAGNETIC FIELD” (PEKING UNIVERSITY, priority 2021, published 2025)

Test: Reaction rate of fluorescent probe SOSG with 1O2 generated by photosensitizer under light and magnetic field
Type: physicochemical
Settings: Ce6 and SOSG 10 μmol/L in water, 640 nm LED 5 mW·cm−2
Experimental: (1) The photosensitizer Rose Bengal (RB) (the purity >98%, available from Saen Chemical Technologies (Shanghai) Ltd. Co., branded as Energy Chemical) and singlet oxygen fluorescent probe (SOSG) are dissolved in water (SOSG available from ThermoFisher Scientific (China) Co., Ltd.). In the resulting solution, the photosensitizer and SOSG are both at a concentration of 10 μmol/L. In a magnetic field with certain strength, the solutions are exposed to a 561 nm LED lamp (light emitting diode) at a power of 5 mW·cm^−2 and tested for fluorescence spectra at 0, 15, 30, 45, 60, 90, 120 and 180 seconds of light exposure, respectively, resulting in emission intensity ([…]) versus time (t) curves. The above fluorescence spectroscopy test is performed at a magnetic field strength of 0, 10, 35, 85, 180, 300 mT, respectively (external magnetic field provided by a neodymium iron boron permanent magnet).
(2) The photosensitizer chlorin e6 (Ce6, Chlorin e6) (available from Saen Chemical Technologies (Shanghai) Ltd. Co., branded as Energy Chemical) and singlet oxygen fluorescent probe (SOSG) are dissolved in water, both with a concentration of 10 μmol/L in the resulting solutions. In a magnetic field with certain strength, the solutions are exposed to a 640 nm LED lamp (light emitting diode) at a power of 5 mW·cm^−2 and tested for fluorescence spectra at 0, 15, 30, 45, 60, 90, 120 and 180 seconds of light exposure, respectively, resulting in emission intensity ([…]) versus time (t) curves. The above fluorescence spectra are tested at a magnetic field strength of 0, 10, 30, 70, 150, 250 mT, respectively.
The external magnetic field is supplied by Neodymium Iron Boron Permanent Magnet. Fluorescence spectra are tested using Edinburg FLS980 Steady State Transient Fluorescence Spectrometer with a detector of PMT R928 and a light source of 450 W ozone-free xenon lamp with excitation wavelength of λex=488 nm.
Under irradiation conditions, photosensitizer is excited to produce singlet oxygen ^1O2, and fluorescent probe SOSG reacts with ^1O2 to give endoperoxide with green fluorescence emission characteristic, with emission wavelength of 525 nm under excitation wavelength conditions of 488 nm. The reaction has a reaction rate of r.
In the present invention, through application of light and a magnetic field, the magnetic field effects (MFEs) is quantified by mfeR, the change rate of the reaction rate r, mfeR=(rB−r0)/r0×100%, where r0 is the reaction rate at a magnetic field strength of 0 mT and rB is the reaction rate at a magnetic field strength of B mT. Where the reaction rate (r) is proportional to the slope of the tangent of a curve (first derivative of the curve) of the emission intensity (I525 nm) versus time (t). Under magnetic field strengths of 0, 10, 35, 85, 180, 300 mT and from the time of starting to illuminate and place in magnetic field (the time recorded as 0), the first derivative of the I525 nm−t curve is 1, 1.05, 1.09, 0.99, 1.12, 1.14 (normalized).

chlorin e6 [Ce6]
first derivative of I525 nm−t curve at time 0 (normalized) (MF 0 mT): 1
first derivative of I525 nm−t curve at time 0 (normalized) (MF 10 mT): 1.09
first derivative of I525 nm−t curve at time 0 (normalized) (MF 30 mT): 1.33
first derivative of I525 nm−t curve at time 0 (normalized) (MF 70 mT): 1.23
first derivative of I525 nm−t curve at time 0 (normalized) (MF 150 mT): 1.16
first derivative of I525 nm−t curve at time 0 (normalized) (MF 250 mT): 1.12
